PubChem BioAssay AID1259407 (Chemical Carcinogenesis Research Information System (CCRIS), 2018)
Calls of active or inactive are those of the source. No rule for the calls is given here.

Test system: CCRIS mutagenicity, Ames/micronucleus/aberration tests
Assay: CCRIS mutagenicity studies
[1] = Test System: AMES SALMONELLA TYPHIMURIUM, Strain/Indicator: TA98, Metabolic Activation: NONE, Method: STANDARD PLATE
[2] = Test System: AMES SALMONELLA TYPHIMURIUM, Strain/Indicator: TA100, Metabolic Activation: NONE, Method: STANDARD PLATE
[3] = Test System: AMES SALMONELLA TYPHIMURIUM, Strain/Indicator: TA100, Metabolic Activation: S-9, Method: STANDARD PLATE
[4] = Test System: AMES SALMONELLA TYPHIMURIUM, Strain/Indicator: TA1535, Metabolic Activation: NONE, Method: STANDARD PLATE

## c1ccc(Nc2ccc(Nc3ccccc3)cc2)cc1
End Point: IN VITRO CHROMOSOMAL ABERRATIONS, Test System: CHINESE HAMSTER LUNG CELLS (CHL), Metabolic Activation: RAT, LIVER, S-9, KC-400
  mutagenic call: inactive; negative
End Point: IN VITRO CHROMOSOMAL ABERRATIONS, Test System: CHINESE HAMSTER OVARY CELLS (CHO), Metabolic Activation: NONE
  mutagenic call: inactive; negative
End Point: IN VITRO CHROMOSOMAL ABERRATIONS, Test System: CHINESE HAMSTER OVARY CELLS (CHO), Metabolic Activation: RAT, LIVER, S-9, AROCLOR 1254
  mutagenic call: inactive; negative
End Point: IN VITRO CHROMOSOMAL ABERRATIONS, Test System: CHL CELLS, Metabolic Activation: RAT, LIVER, S-9, SODIUM PHENOBARBITAL AND 5,6-BENZOFLAVONE
  mutagenic call: inactive; negative; authors report equivocal results for structural changes at 0.08 and 0.
Test System: AMES SALMONELLA TYPHIMURIUM, Strain/Indicator: TA98, Metabolic Activation: HAMSTER, LIVER, S-9, AROCLOR 1254 (30%), Method: PREINCUBATION
  mutagenic call: active; positive
Test System: AMES SALMONELLA TYPHIMURIUM, Strain/Indicator: TA98, Metabolic Activation: NONE, Method: PREINCUBATION
  mutagenic call: inactive; negative
[1]
  mutagenic call: inactive; negative
Test System: AMES SALMONELLA TYPHIMURIUM, Strain/Indicator: TA98, Metabolic Activation: RAT, LIVER, S-9, AROCLOR 1254 (30%), Method: PREINCUBATION
  mutagenic call: active; positive
Test System: AMES SALMONELLA TYPHIMURIUM, Strain/Indicator: TA98, Metabolic Activation: S-9, Method: STANDARD PLATE
  mutagenic call: inactive; negative
Test System: AMES SALMONELLA TYPHIMURIUM, Strain/Indicator: TA100, Metabolic Activation: HAMSTER, LIVER, S-9, AROCLOR 1254 (30%), Method: PREINCUBATION
  mutagenic call: inactive; negative
Test System: AMES SALMONELLA TYPHIMURIUM, Strain/Indicator: TA100, Metabolic Activation: NONE, Method: PREINCUBATION
  mutagenic call: inactive; negative
[2]
  mutagenic call: inactive; negative
Test System: AMES SALMONELLA TYPHIMURIUM, Strain/Indicator: TA100, Metabolic Activation: RAT, LIVER, S-9, AROCLOR 1254 (30%), Method: PREINCUBATION
  mutagenic call: inactive; negative
[3]
  mutagenic call: inactive; negative

## CC(O)CN(N=O)C(N)=O (stereo not given)
Test System: E. COLI B, Strain/Indicator: H/R30R, Metabolic Activation: NONE
  mutagenic call: active; positive
Test System: E. COLI B, Strain/Indicator: HS30R, Metabolic Activation: NONE
  mutagenic call: active; positive

## C#C[C@]1(O)CC[C@H]2[C@@H]3CCc4cc(OC)ccc4[C@H]3CC[C@@]21C
End Point: IN VITRO CHROMOSOMAL ABERRATIONS, Test System: HUMAN PERIPHERAL LYMPHOCYTES, Metabolic Activation: NONE
  mutagenic call: active; positive (total aberrations excluding gaps); positive at higher dose levels
End Point: IN VIVO CHROMOSOMAL ABERRATIONS, Test System: BONE MARROW CELLS, Species: MOUSE, Strain/Sex: SWISS/MALE, Route: IP INJECTION (ONCE)
  mutagenic call: active; positive
End Point: IN VIVO MICRONUCLEUS, Test System: BONE MARROW POLYCHROMATIC ERYTHROCYTES, Species: MOUSE, Strain/Sex: SWISS/MALE, Route: IP INJECTION (SINGLE DOSE)
  mutagenic call: active; positive
Test System: AMES SALMONELLA TYPHIMURIUM, Strain/Indicator: TA97A, Metabolic Activation: NONE, Method: STANDARD PLATE
  mutagenic call: inactive; negative
Test System: AMES SALMONELLA TYPHIMURIUM, Strain/Indicator: TA97A, Metabolic Activation: RAT, LIVER, S-9, PHENOBARBITONE, Method: PREINCUBATION
  mutagenic call: inactive; negative
[1]
  mutagenic call: inactive; negative
Test System: AMES SALMONELLA TYPHIMURIUM, Strain/Indicator: TA98, Metabolic Activation: RAT, LIVER, S-9, PHENOBARBITONE, Method: PREINCUBATION
  mutagenic call: inactive; negative
[2]
  mutagenic call: inactive; negative
Test System: AMES SALMONELLA TYPHIMURIUM, Strain/Indicator: TA100, Metabolic Activation: RAT, LIVER, S-9, PHENOBARBITONE, Method: PREINCUBATION
  mutagenic call: inactive; negative
[4]
  mutagenic call: inactive; negative
Test System: AMES SALMONELLA TYPHIMURIUM, Strain/Indicator: TA1535, Metabolic Activation: RAT, LIVER, S-9, PHENOBARBITONE, Method: PREINCUBATION
  mutagenic call: inactive; negative
Test System: HOST-MEDIATED ASSAY WITH SALMONELLA, Strain/Indicator: TA97A, Metabolic Activation: MALE SWISS MOUSE, SALMONELLA ADMINISTERED 4 HR AFTER 2ND INJECTION: SACRIFICE 2 HR LATER, Method: 2 INJECTIONS AT 12 HR INTERVAL
  mutagenic call: inactive; negative
Test System: HOST-MEDIATED ASSAY WITH SALMONELLA, Strain/Indicator: TA98, Metabolic Activation: MALE SWISS MOUSE, SALMONELLA ADMINISTERED 4 HR AFTER 2ND INJECTION: SACRIFICE 2 HR LATER, Method: 2 INJECTIONS AT 12 HR INTERVAL
  mutagenic call: inactive; negative
Test System: HOST-MEDIATED ASSAY WITH SALMONELLA, Strain/Indicator: TA100, Metabolic Activation: MALE SWISS MOUSE, SALMONELLA ADMINISTERED 4 HR AFTER 2ND INJECTION: SACRIFICE 2 HR LATER, Method: 2 INJECTIONS AT 12 HR INTERVAL
  mutagenic call: inactive; negative
Test System: HOST-MEDIATED ASSAY WITH SALMONELLA, Strain/Indicator: TA1535, Metabolic Activation: MALE SWISS MOUSE, SALMONELLA ADMINISTERED 4 HR AFTER 2ND INJECTION: SACRIFICE 2 HR LATER, Method: 2 INJECTIONS AT 12 HR INTERVAL
  mutagenic call: inactive; negative

## O=C(N=c1sn(C(=O)c2ccccc2[N+](=O)[O-])c2ccc([N+](=O)[O-])cc12)c1ccccc1[N+](=O)[O-]
[3]
  mutagenic call: active; positive

## O=CC=C(Cl)Cl
[1]
  mutagenic call: active; positive
Test System: AMES SALMONELLA TYPHIMURIUM, Strain/Indicator: TA98, Metabolic Activation: RAT, LIVER, S-9, AROCLOR 1254, Method: STANDARD PLATE
  mutagenic call: inactive; negative
[2]
  mutagenic call: active; positive
Test System: AMES SALMONELLA TYPHIMURIUM, Strain/Indicator: TA100, Metabolic Activation: RAT, LIVER, S-9, AROCLOR 1254, Method: STANDARD PLATE
  mutagenic call: active; positive
[4]
  mutagenic call: active; positive
Test System: AMES SALMONELLA TYPHIMURIUM, Strain/Indicator: TA1535, Metabolic Activation: RAT, LIVER, S-9, AROCLOR 1254, Method: STANDARD PLATE
  mutagenic call: active; positive
Test System: AMES SALMONELLA TYPHIMURIUM, Strain/Indicator: TA1537, Metabolic Activation: NONE, Method: STANDARD PLATE
  mutagenic call: inactive; negative
Test System: AMES SALMONELLA TYPHIMURIUM, Strain/Indicator: TA1537, Metabolic Activation: RAT, LIVER, S-9, AROCLOR 1254, Method: STANDARD PLATE
  mutagenic call: inactive; negative
